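Protocol summary: plate cells (96-well), add compound at 5 concentrations, incubate 48 h, interpolate endpoints linearly. The concentration for 50% growth inhibition is given as GI50.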 Active and inactive are the calls of the source. Cut-off read from the data, not from the text of the source: active = GI50 up to about 1.1 µM and inactive = higher.
Legend:
Test in all cases: growth of human tumour cells (NCI), 48 h
HL-60 = test system: HL-60
EKVX = test system: EKVX
UO-31 = test system: UO-31
Hs-578T = test system: Hs-578T
Malme-3M = test system: Malme-3M
U-251 = test system: U-251
NCI-H226 = test system: NCI-H226
T47D = test system: T47D
MDA-MB-231 = test system: MDA-MB-231
OVCAR-4 = test system: OVCAR-4
BT-549 = test system: BT-549
SK-MEL-5 = test system: SK-MEL-5
NCI/ADR-RES = test system: NCI/ADR-RES
LOX IMVI = test system: LOX IMVI
HCT-15 = test system: HCT-15
SNB-75 = test system: SNB-75
SF-268 = test system: SF-268
RPMI-8226 = test system: RPMI-8226
TK-10 = test system: TK-10

Row | Structure (SMILES) | GI50 (HL-60) | GI50 (EKVX) | GI50 (UO-31) | GI50 (Hs-578T) | GI50 (Malme-3M) | GI50 (U-251) | GI50 (NCI-H226) | GI50 (T47D) | GI50 (MDA-MB-231) | GI50 (OVCAR-4) | GI50 (BT-549) | GI50 (SK-MEL-5) | GI50 (NCI/ADR-RES) | GI50 (LOX IMVI) | GI50 (HCT-15) [µM] | GI50 (SNB-75) | GI50 (SF-268) | GI50 (RPMI-8226) | GI50 (TK-10)
1 | CC(C)Oc1cccc(N2C(Nc3ccccc3)=Nc3ccncc3S2(=O)=O)c1 | 0.41 µM (active) | 40.5 µM (inactive) | 19.1 µM (inactive) | 39.7 µM (inactive) | 23.2 µM (inactive) | 7.67 µM (inactive) | 24.1 µM (inactive) | 13.8 µM (inactive) | 15.2 µM (inactive) | 15.6 µM (inactive) | 22.4 µM (inactive) | 4.12 µM (inactive) | 19.3 µM (inactive) | 17.7 µM (inactive) | 20.2 | > 100 µM (inactive) | 38.9 µM (inactive) | – | –
2 | O=C(O)c1ccc2c(O)c(O)ccc2c1 | – | 20.8 µM (inactive) | 19.5 µM (inactive) | 27.2 µM (inactive) | 38.9 µM (inactive) | 19.9 µM (inactive) | 18.7 µM (inactive) | 45.4 µM (inactive) | 29 µM (inactive) | 21.5 µM (inactive) | 21.6 µM (inactive) | 17.3 µM (inactive) | 19.5 µM (inactive) | 5.38 µM (inactive) | 21.6 | 10.4 µM (inactive) | 8.47 µM (inactive) | 15.4 µM (inactive) | 13.8 µM (inactive)
3 | Cc1cn(CC2=NCC(C)N2)c(=O)[nH]c1=O (configuration not stated) | – | > 100 µM (inactive) | > 100 µM (inactive) | > 100 µM (inactive) | > 100 µM (inactive) | > 100 µM (inactive) | > 100 µM (inactive) | > 100 µM (inactive) | > 100 µM (inactive) | – | > 100 µM (inactive) | > 100 µM (inactive) | > 100 µM (inactive) | > 100 µM (inactive) | > 100 | > 100 µM (inactive) | > 100 µM (inactive) | > 100 µM (inactive) | > 100 µM (inactive)
4 | Cc1ccc(C(=O)/C=C2\Nc3ccccc3S\C2=N\CS(=O)(=O)c2ccc(C)cc2)cc1 | 7.41 µM (inactive) | – | – | 8.43 µM (inactive) | > 10 µM (inactive) | > 10 µM (inactive) | – | 8.2 µM (inactive) | > 10 µM (inactive) | 4.02 µM (inactive) | > 10 µM (inactive) | > 10 µM (inactive) | > 10 µM (inactive) | > 10 µM (inactive) | > 10 | > 10 µM (inactive) | > 10 µM (inactive) | > 10 µM (inactive) | > 10 µM (inactive)
5 | O=[N+]([O-])c1ccc2sc(/C=N/c3cnccn3)cc2c1 | 14.2 µM (inactive) | 39.1 µM (inactive) | 24.1 µM (inactive) | 16.7 µM (inactive) | 37 µM (inactive) | 20.9 µM (inactive) | – | 0.714 µM (active) | 23.7 µM (inactive) | – | 85.7 µM (inactive) | 45.8 µM (inactive) | 70.3 µM (inactive) | 22.8 µM (inactive) | 34.4 | 0.861 µM (active) | 27.2 µM (inactive) | 16 µM (inactive) | 30.3 µM (inactive)
6 | C1CSC(Sc2nc(SC3=NCCS3)nc(SC3=NCCS3)n2)=N1 | > 100 µM (inactive) | > 100 µM (inactive) | > 100 µM (inactive) | > 100 µM (inactive) | > 100 µM (inactive) | > 100 µM (inactive) | > 100 µM (inactive) | > 100 µM (inactive) | > 100 µM (inactive) | > 100 µM (inactive) | > 100 µM (inactive) | > 100 µM (inactive) | > 100 µM (inactive) | > 100 µM (inactive) | > 100 | – | > 100 µM (inactive) | > 100 µM (inactive) | > 100 µM (inactive)
7 | O=C(N/N=C(COc1ccc([N+](=O)[O-])cc1)\N=C\c1ccncc1)c1ccncc1 | > 100 µM (inactive) | > 100 µM (inactive) | – | – | > 100 µM (inactive) | > 100 µM (inactive) | > 100 µM (inactive) | > 100 µM (inactive) | > 100 µM (inactive) | > 100 µM (inactive) | > 100 µM (inactive) | – | > 100 µM (inactive) | 0.564 µM (active) | > 100 | 94.6 µM (inactive) | > 100 µM (inactive) | > 100 µM (inactive) | > 100 µM (inactive)
8 | CC(C)C1CC(CO)(CNc2cc(Cl)nc(N)n2)C1 (configuration not stated) | 18.1 µM (inactive) | 7.06 µM (inactive) | 54 µM (inactive) | 25.6 µM (inactive) | 39.2 µM (inactive) | 44 µM (inactive) | 13.5 µM (inactive) | 0.805 µM (active) | 94 µM (inactive) | 20.7 µM (inactive) | 65.8 µM (inactive) | 3.55 µM (inactive) | 16.8 µM (inactive) | 10.4 µM (inactive) | 22.5 | – | 5 µM (inactive) | 11.8 µM (inactive) | > 100 µM (inactive)
